How the values were obtained:
GPR32 = target: T1, GPR32 (Homo sapiens, UniProt O75388); test: Ca2+ imaging (Fura-2AM) in HEK293 cells transfected with GPR32 cDNA; format: cell-based; conditions: HEK293 cells expressing GPR32; RvD1 100 nM
T1 construct: host or cells: HEK293 flip-in cells
Excerpt: (§1) FIG. 10A-FIG. 10C. Characterization of intracellular Ca^2+ changes in HEK293 cells expressing ChemR23, GPR32, and ALX. Ca^2+ imaging with Fura-2AM indicator showing iCa^2+ levels in HEK293 cells transfected with ChemR23 (FIG. 10A), GPR32 (FIG. 10B), and ALX (FIG. 10C) cDNAs. Note that NPD1 fails to elicit iCa^2+ increase in HEK293 cells expressing ChemR23, GPR32, and ALX. […] ATP is included as a positive control. *P<0.05, compared with baseline n=44˜97 cells from 3 cultures. All the data are expressed as mean±s.e.m.
(§2) HEK cell culture and transfection. HEK293 flip-in cell line was purchased from Duke Cell Culture Facility. Cells were cultured in high glucose (4.5 g/L) Dulbecco's Modified Eagle's Medium containing 10% (v/v) fetal bovine serum (Gibco). Transfection (2 μg cDNA) was performed with Lonza electroporation (Lonza) at 70% confluency and the transfected cells were cultured in the same growth medium for 48 h before use. The hGPR37-V5 pLenti304 plasmids were obtained from DNASU (Tempe, AZ), and hGPR32, hChemR23 and hALX pcDNA3 plasmids were provided by Dr. Serhan from Harvard Medical School, Boston.
(§3) Calcium imaging. HEK 293 cells, with or without transfection of Gpr37, GPR32, ChemR23 or ALX1 cDNA, were loaded with 5 μM Fura-2AM (Invitrogen) for 1 hour and then were resuspended in normal external buffer (140 NaCl, 5 KCl, 2 CaCl2, 2 MgCl2, 10 HEPES, in mM, titrated to pH 7.4 with NaOH) or external Ca^2+-free buffer (140 NaCl, 2 MgCl2, 5 EGTA, 10 HEPES, in mM, titrated to pH 7.4 with NaOH). Peritoneal macrophages, collected from WT and Gpr37 KO mice, were loaded with 5 μM Fura-4AM (Invitrogen) for 1 hour and then were resuspended in normal external buffer. Images of the HEK 293 cells and macrophages with the excitation wavelength of 340 nm and 380 nm were captured with a cooled Digital CMOS camera (ORCA-Flash 4.0, Hamamatsu Photonics K.K, Japan). The ratio of fluorescence intensity of the two wavelengths in each experiment was analyzed using MetaFluor (Molecular Devices). The Shutter speed and wavelength was controlled by Lambda DG-4 system (Sutter instrument Co., Novato, CA). […]

GPR37 [1] = target: T2, GPR37 (Homo sapiens, UniProt O15354); test: Ca2+ imaging (Fura-2AM) in HEK293 cells transfected with human GPR37 cDNA; format: cell-based; conditions: GPR37-expressing HEK293 cells; for intracellular Ca2+ (iCa2+) increase: 3 min
T2 construct: host or cells: HEK293 flip-in cells
T2 sequence (O15354 27-613): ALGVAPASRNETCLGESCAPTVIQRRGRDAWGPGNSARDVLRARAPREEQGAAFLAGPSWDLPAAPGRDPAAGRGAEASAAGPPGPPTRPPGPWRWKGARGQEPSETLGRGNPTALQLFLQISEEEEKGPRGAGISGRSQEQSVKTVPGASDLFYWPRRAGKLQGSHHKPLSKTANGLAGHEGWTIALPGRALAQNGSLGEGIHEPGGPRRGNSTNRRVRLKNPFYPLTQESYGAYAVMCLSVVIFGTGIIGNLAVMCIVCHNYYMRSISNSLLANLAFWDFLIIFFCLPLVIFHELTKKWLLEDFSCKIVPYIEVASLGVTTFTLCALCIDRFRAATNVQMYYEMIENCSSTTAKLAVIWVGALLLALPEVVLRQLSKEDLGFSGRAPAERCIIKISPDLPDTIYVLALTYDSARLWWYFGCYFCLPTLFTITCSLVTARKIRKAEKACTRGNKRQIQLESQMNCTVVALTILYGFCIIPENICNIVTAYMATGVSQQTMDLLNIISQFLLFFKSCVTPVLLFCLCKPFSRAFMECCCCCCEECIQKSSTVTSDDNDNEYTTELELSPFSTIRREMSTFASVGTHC
Procedure: as §2
Calcium imaging. HEK 293 cells, with or without transfection of Gpr37, GPR32, ChemR23 or ALX1 cDNA, were loaded with 5 μM Fura-2AM (Invitrogen) for 1 hour and then were resuspended in normal external buffer (140 NaCl, 5 KCl, 2 CaCl2, 2 MgCl2, 10 HEPES, in mM, titrated to pH 7.4 with NaOH) or external Ca^2+-free buffer (140 NaCl, 2 MgCl2, 5 EGTA, 10 HEPES, in mM, titrated to pH 7.4 with NaOH). Peritoneal macrophages, collected from WT and Gpr37 KO mice, were loaded with 5 μM […] (Invitrogen) for 1 hour and then were resuspended in normal external buffer. Images of the HEK 293 cells and macrophages with the excitation wavelength of 340 nm and 380 nm were captured with a cooled Digital CMOS camera (ORCA-Flash 4.0, Hamamatsu Photonics K.K, Japan). The ratio of fluorescence intensity of the two wavelengths in each experiment was analyzed using MetaFluor (Molecular Devices). The Shutter speed and wavelength was controlled by Lambda DG-4 system (Sutter instrument Co., Novato, CA). Values from each of the experiments were normalized to the baseline ratio of 340/380 nm.
In order to investigate how GPR37 regulates intracellular signaling, we conducted Ca^2+ imaging in HEK293 cells that overexpress GPR37. […] Thus, we hypothesized TX14 and SPM may activate the same receptors and elicit similar intracellular responses. We transfected HEK293 cells with human GPR37 cDNA, loaded these cells with Ca^2+ dye Fura-2AM, and stimulated them with TX14 and various SPMs, using ionomycin (2 μM) as a positive control for Ca^2+ influx (FIG. 2A, FIG. 2B, FIG. 2C).

GPR37 [2] = target: T2, GPR37; test: Dot blot binding assay with lysates of HEK293 cells with GPR37 cDNA or mock transfection; conditions: for binding to GPR37-containing lysates: blots coated with different concentrations, lysates of HEK293 cells with GPR37 cDNA
Procedure: Lipids overlay assay. Lipids membrane coating and protein overlay assay was conducted as previously described (Ji R R, et al. Science 2016, 354, 572-577). Ethanol and chloroform soluble fatty acids were directly loaded on hydrophobic PVDF membrane (Bio-Rad). The fatty acids (NPD1, RvD1, RvE1, and DHA) coated membranes were dried and blocked with 1% BSA. The cell lysate and purified GPR37-V5 protein were incubated with the coating membrane for 2 h, and the binding was detected by anti-V5 tagged antibody (mouse, 1:1000, Thermo scientific, Catalog: 46-0705).
as §2
To determine whether NPD1 and TX14 bind to GPR37, we conducted dot blot assay by coating the blots with different concentrations of NPD1 and TX14 and included RvE1 as a control. The blots were then incubated with cell lysates from HEK293 cells with GPR37 cDNA or Mock transfection.

ChemR23 = target: T3, ChemR23 (Homo sapiens, UniProt Q99788); test: Ca2+ imaging (Fura-2AM) in HEK293 cells transfected with ChemR23 cDNA; format: cell-based; conditions: HEK293 cells expressing ChemR23; RvE1 100 nM
T3 construct: host or cells: HEK293 flip-in cells
T3 sequence (Q99788 1-373): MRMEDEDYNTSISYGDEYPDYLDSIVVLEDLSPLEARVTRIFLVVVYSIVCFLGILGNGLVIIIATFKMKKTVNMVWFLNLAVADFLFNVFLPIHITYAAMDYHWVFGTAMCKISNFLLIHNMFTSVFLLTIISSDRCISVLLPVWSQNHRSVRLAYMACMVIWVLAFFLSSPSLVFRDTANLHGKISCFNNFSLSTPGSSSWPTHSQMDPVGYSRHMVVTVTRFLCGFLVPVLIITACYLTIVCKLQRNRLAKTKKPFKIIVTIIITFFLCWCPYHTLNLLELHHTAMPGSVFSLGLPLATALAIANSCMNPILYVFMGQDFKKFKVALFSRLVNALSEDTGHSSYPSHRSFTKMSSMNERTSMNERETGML
Excerpt: as §1, §2, §3

T1 sequence (O75388 whole entry): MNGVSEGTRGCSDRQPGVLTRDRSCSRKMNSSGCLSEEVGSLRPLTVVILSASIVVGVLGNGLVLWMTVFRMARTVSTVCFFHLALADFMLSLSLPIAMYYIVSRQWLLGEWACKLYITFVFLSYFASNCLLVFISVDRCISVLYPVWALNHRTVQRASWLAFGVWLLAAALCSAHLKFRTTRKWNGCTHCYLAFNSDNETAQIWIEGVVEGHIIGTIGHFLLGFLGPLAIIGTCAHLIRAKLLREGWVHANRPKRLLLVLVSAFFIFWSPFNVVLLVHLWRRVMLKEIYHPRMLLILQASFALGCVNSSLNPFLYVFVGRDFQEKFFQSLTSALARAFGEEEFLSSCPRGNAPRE

iCa2+ increase / Ca2+ response (GPR32)	intracellular Ca2+ (iCa2+) increase (GPR37 [1]; 100 nM)	binding to GPR37-containing lysates (GPR37 [2])	iCa2+ increase / Ca2+ response (ChemR23)	binding of lysates from mock transfection (GPR37-negative) (GPR37 [2]; mock-transfected HEK293 lysates)	intracellular Ca2+ (iCa2+) increase (GPR37 [1]; 30 nM)	EC50 (GPR37 [1]; dose response, read-out: EC50 of iCa2+ increase)	SMILES	binding affinity to GPR37, comparison (GPR37 [2]; dose-response curve analysis)
failed to evoke Ca^2+ responses	failed to increase iCa^2+						CC/C=C\C[C@H](O)/C=C/C=C\C=C\C=C\[C@@H](O)[C@@H](O)C/C=C\CCC(=O)O [RvD1]	
	failed to increase iCa^2+	not	failed to evoke Ca^2+ responses				CC[C@@H](O)/C=C/C=C\C[C@@H](O)/C=C/C=C/C=C\[C@@H](O)CCCC(=O)O [RvE1]	
failed to elicit iCa^2+ increase		dose-dependent binding	failed to elicit iCa^2+ increase	did not show binding activities	elicited significant increases	0.026 µM	CC/C=C\C[C@H](O)\C=C/C=C/C=C/[C@H](O)C/C=C\C/C=C\CCC(=O)O [NPD1, neuroprotectin D1]	higher binding affinity to GPR37 than TX14
